Laboratory results: US12673939B2, “Methods of synthesis of heteroaryl derivatives of triazolyl acrylamides and crystalline forms” (Karyopharm Therapeutics Inc., priority 2021, dated 2026)

Assay: Dynamic vapor sorption (DVS) moisture sorption isotherm
Assay type: physicochemical
Details: reversible; from 0 to 90% RH; 25° C.
Protocol: The crystalline Form I provided can be additionally characterized by dynamic vapor sorption (DVS), wherein a sample is subjected to varying conditions of humidity and temperature, and the response of the sample is measured gravimetrically. The result of a DVS analysis particularly can be a dual curve providing sample weight percent as a function of relative humidity (RH) over time, a dual curve providing sample water content as a function of RH over time, a curve providing weight percent in relation to RH, or a curve providing water content in relation to RH. Equipment useful for measuring such data is known in the art, and any such equipment can be used to measure the compounds according to the present disclosure. In certain embodiments, DVS analysis can be carried out by scanning at a series of specific RH values. […]
Sorption isotherms were obtained using a SMS DVS Intrinsic moisture sorption analyser, controlled by DVS Intrinsic Control software v1.0.1.2 (or v 1.0.1.3). […] The relative humidity (RH) was measured by a calibrated Rotronic probe (dynamic range of 1.0-100% RH), located near the sample. The weight change, (mass relaxation) of the sample as a function of % RH was constantly monitored by the microbalance (accuracy±0.005 mg). […]
The sample was recovered after completion of the isotherm and re-analyzed by XRPD.

water adsorption (dynamic vapor sorption): 0.12 % w/w
SMILES: NC(=O)/C(=C/n1cnc(-c2cc(C(F)(F)F)cc(C(F)(F)F)c2)n1)c1cncnc1 [Crystalline Form I, (E)-3-(3-(3,5-bis(trifluoromethyl)phenyl)-1H-1,2,4-triazol-1-yl)-2-(pyrimidin-5-yl)acrylamide]
